Measurements as given in patent publication US8754047B2, “Peptide compositions and methods of use” (The Research Foundation for the State University of New York, priority 2008, dated 2014).
Values joined by “and” are separate entries in the source; they are usually repeats but may differ in a detail not shown here. Equal values may be shown once. Positions of bridges follow the written chain, without caps; N, C: chain ends. Residues, ends and D or L forms follow the SMILES beside them.

Key:
[1] = system: SW480 human colon cancer cells; assay: In vitro cell viability assay by MTT / cell Titer-Glo, SW480; conditions: 24 h
Experimental: (§1) 10,000 HT29 or SW480 human colon cancer cells, BxPC-3 human pancreatic cancer cells, and MCF7 and MDA-MB-231 breast cancer cells were obtained from American Type Culture Collection (ATTC), Manassas, Va., and were seeded in separate 96-well plates. After treatment with various concentrations (6.25 μM, 12.5 μM, 25 μM, 50 μM, 100 μM, or 200 μM) of test peptide for 24 h, cells were stained with MTT (3-(4,5-Dimethyl-2-thiazolyl)-2,5-diphenyl-2H-tetrazolium bromide, from Sigma-Aldrich) following the instructions of the manufacturer. Before dissolving MTT in SDS, the HT29 and SW480 cells were photographed using a digital camera connected with a phase-contrast microscope. (FIG. 2A1-8, and FIG. 2B1-6). Cells that are alive convert MTT into formazan in their active mitochondria and appear dark purple; dead cells are not stained by MTT and appear colorless.
(§2) The IC50 is the concentration of the test agent that inhibits cell growth by 50% at 24 hours of exposure. IC50s were determined using the MTT assay or using the cell Titer-Glo method and following the instructions of the manufacturer ([…]). […] (Sun, Y., and Rigas, B., (2008), Cancer Res., 68(20): 8269-8277).
The effect of peptide YJB02 on SW480 colon cancer cells was compared to the effect of peptide YJB02 on the normal human colon epithelial cell line NCM460. […] The viability was determined as described in Example 2.

[2] = system: BxPC-3 human pancreatic cancer cells; conditions: 24 h
Experimental: as §1, §2

[3] = system: MCF7 breast cancer cells; conditions: 24 h
Experimental: as §1, §2

[4] = system: MDA-MB-231 breast cancer cells; conditions: 24 h
Experimental: as §1, §2

[5] = system: SW480 human colon cancer cell xenografts; assay: In vivo xenograft assay of tumor size, SCID mice; conditions: 100 μg intraperitoneally once a day, 10 days, one mouse
Experimental: Immunodeficient SCID mice (from Jackson Lab) were transplanted subcutaneously to their flank with 1.5 million SW480 human colon cancer cells. After the tumor size reached 120-150 mm^3, one mouse was treated with 100 μg YJB01 peptide injected intraperitoneally once a day, and the other one was treated with DMSO as a vehicle control. The tumor size was measured every two days (see FIG. 3A and FIG. 3B). The tumor volume was calculated based on its length (L) and width (W) using the formula Tumor volume=LW(L+W/2)0.56. (Rigas, B., and Kozoni, V., (2008) International Journal of Oncology, 32: 97-100). On the 10th day of treatment, the tumor volume was determined, the SCID mice were sacrificed and the tumors were excised and their weight was recorded (FIG. 3B).

[6] = system: SW480 human colon cancer cells; assay: Flow cytometry forward/side scatter, proportion of dead cells, SW480; format: cell-based; conditions: 200 μM, 24 hr
Experimental: SW480 human colon cancer cells and MCF7 breast cancer cells were grown following the instructions of American Type Culture Collection (ATCC, Monassas, Va.). The cells were treated with the test peptides (YJB01, YJB05, or YJB06) for 24 hrs at concentrations ranging from 0 μM, to 200 μM and subjected to flow cytometric analysis following standard protocols.
SW480 human colon cancer cells and MCF7 breast cancer cells were grown following the instructions of American Type Culture Collection (ATCC, Monassas, Va.). The cells were treated with the test peptides for 24 hrs at concentrations ranging from 0 μM, to 200 μM and subjected to flow cytometry analysis following standard protocols. […] The circumscribed (gated, outlined) areas in the figure indicate dead cells; dead cells generally have higher density (side scatter) and smaller size (forward scatter) than living cells.

[7] = system: SW480 human colon cancer cells; assay: Annexin V-FITC flow cytometry for apoptotic cells, SW480; format: cell-based; conditions: 24 hrs, 0 μM to 200 μM
Experimental: (§3) SW480 human colon cancer cells and MCF7 breast cancer cells were grown following the instructions of American Type Culture Collection (ATCC, Monassas, Va.). The cells were treated with the test peptides (YJB01, YJB05, or YJB06) for 24 hrs at concentrations ranging from 0 μM, to 200 μM. After treatment, cells were trypsinized and stained with Annexin V-FITC (100× dilution) for 15 minutes. Annexin V-FITC fluorescence intensities were analyzed by FACSCaliber (BD Bioscience) following standard protocols. Annexin V (+) cells are apoptotic cells.
When cells undergo apoptosis, the inner membrane phospholipid, phosphotidylserine (PS), flips to the outer membrane and can be recognized by the […]. The green FITC fluorescence can be determined by flow cytometry and thus Annexin V (+) cells are apoptotic cells.
as §3, with “In this study, SW480” for “SW480”, “human” for “human colon”, “treatment” for “treatment,”, “protocols.” for “protocols. Annexin V (+) cells are apoptotic cells.”

[8] = system: SW480 human colon cancer xenografts; assay: SW480 human colon cancer xenografts in nude mice, tumor volume; format: in vivo; conditions: for reduction in tumor volume: vs vehicle
Experimental: (§4) Xenografts were generated as described in FIG. 3A-B and Example 3 except where noted. Each animal had two xenografts, one on its right flank and one on the left. In these studies, the effect of two doses of YJB01, 100 μg and 500 μg per animal were evaluated. The doses were administrated intraperitoneally once a day dissolved in phosphate buffered saline (PBS). Control animals were injected with PBS. Tumor volume was determined as described in Example 3. Tumor volume is expressed as mean±SEM.
as §4, with “the” for “FIG. 3A-B and”
Xenografts were generated as described in the Example 3 except that 8 Balb/c nude mice in each group were used in this experiment. Nude mice bearing SW480 xenografts were treated with 500 μg/day of YJB02 for 19 days. The doses were administrated intraperitoneally once a day dissolved in phosphate buffered saline (PBS). Control animals were treated with PBS.
Tumor volume was determined as described in Example 3. Tumor volume was monitored and graphed as set forth in FIG. 9A, and is expressed as mean±SEM.

[9] = 500 μg intraperitoneally once a day for 10 days

CC[C@H](C)[C@H](NC(=O)[C@H](CCCCN)NC(=O)[C@@H](NC(=O)[C@H](CCC(N)=O)NC(=O)[C@H](CCCNC(=N)N)NC(=O)[C@@H]1CCCN1C(=O)[C@H](CCCCN)NC(=O)[C@@H]1CSSC[C@H](NC(=O)[C@H](Cc2c[nH]c3ccccc23)NC(=O)[C@@H](NC(=O)[C@H](C)N)[C@@H](C)O)C(=O)NCC(=O)N2CCC[C@H]2C(=O)N1)[C@@H](C)CC)C(=O)N[C@@H](Cc1c[nH]c2ccccc12)C(=O)N[C@@H](Cc1ccccc1)C(=O)N[C@@H](CCC(N)=O)C(=O)N[C@@H](CC(N)=O)C(=O)N[C@@H](CCCNC(=N)N)C(=O)N[C@@H](CCCNC(=N)N)C(=O)N[C@@H](CCSC)C(=O)N[C@@H](CCCCN)C(=O)N[C@@H](Cc1c[nH]c2ccccc12)C(=O)N[C@@H](CCCCN)C(=O)N[C@@H](CCCCN)C(=O)O [YJB01] (H-ATWCGPCKPRQIKIWFQNRRMKWKK-OH; disulfide 4-7; N-terminus and C-terminus assumed)
IC50 [1]: 34.7 µM | IC50 [2]: 109 µM | IC50 [3]: 68.9 µM | IC50 [4]: 88 µM | tumor growth at day 10 comparing with day 1 [5]: −0.04% and −4% | dead cells, SW480 [6]: 81.19% | apoptosis, Annexin V (+) cells, SW480 [7]: cell killing effect | reduction in tumor volume ([8]; 100 μg intraperitoneally once a day for 21 days): 32% | tumor volume ([8]; 100 μg intraperitoneally once a day for 21 days, vehicle 776 mm^3): 527 mm^3 | tumor volume compared to its baseline [8, 9]: caused tumor regression | reduction in tumor volume [8, 9]: 60% | tumor volume ([8]; 500 μg intraperitoneally once a day for 10 days, vehicle 257 mm^3): 102 mm^3
